Assay results reported in ChEMBL document CHEMBL4316607, “Discovery of NR2B-selective antagonists via scaffold hopping and pharmacokinetic profile optimization” (Bioorg Med Chem Lett, 2019).

Experiments:
[1] = molecular target: Glutamate receptor ionotropic, NMDA 2B (Rattus norvegicus, UniProt Q00960); test: Displacement of [3H]-ifenprodil from NR2B receptor in rat brain cerebral cortex membranes incubated for 120 mins by liquid scintillation counting method; assay type: cell membranes
[2] = molecular target: Glutamate receptor ionotropic, NMDA 2B (Mus musculus, UniProt P35438+Q01097); test: Antagonist activity at mouse NR2B receptor expressed in HEK293 cells co-expressing NR1 subunit assessed as reduction in glutamic acid/glycine-induced calcium ion influx by fluorescence based assay; assay type: cell-based
Glutamate receptor ionotropic, NMDA 2B (Mus musculus, UniProt P35438+Q01097), sequence (Q01097 whole entry, one chain of several): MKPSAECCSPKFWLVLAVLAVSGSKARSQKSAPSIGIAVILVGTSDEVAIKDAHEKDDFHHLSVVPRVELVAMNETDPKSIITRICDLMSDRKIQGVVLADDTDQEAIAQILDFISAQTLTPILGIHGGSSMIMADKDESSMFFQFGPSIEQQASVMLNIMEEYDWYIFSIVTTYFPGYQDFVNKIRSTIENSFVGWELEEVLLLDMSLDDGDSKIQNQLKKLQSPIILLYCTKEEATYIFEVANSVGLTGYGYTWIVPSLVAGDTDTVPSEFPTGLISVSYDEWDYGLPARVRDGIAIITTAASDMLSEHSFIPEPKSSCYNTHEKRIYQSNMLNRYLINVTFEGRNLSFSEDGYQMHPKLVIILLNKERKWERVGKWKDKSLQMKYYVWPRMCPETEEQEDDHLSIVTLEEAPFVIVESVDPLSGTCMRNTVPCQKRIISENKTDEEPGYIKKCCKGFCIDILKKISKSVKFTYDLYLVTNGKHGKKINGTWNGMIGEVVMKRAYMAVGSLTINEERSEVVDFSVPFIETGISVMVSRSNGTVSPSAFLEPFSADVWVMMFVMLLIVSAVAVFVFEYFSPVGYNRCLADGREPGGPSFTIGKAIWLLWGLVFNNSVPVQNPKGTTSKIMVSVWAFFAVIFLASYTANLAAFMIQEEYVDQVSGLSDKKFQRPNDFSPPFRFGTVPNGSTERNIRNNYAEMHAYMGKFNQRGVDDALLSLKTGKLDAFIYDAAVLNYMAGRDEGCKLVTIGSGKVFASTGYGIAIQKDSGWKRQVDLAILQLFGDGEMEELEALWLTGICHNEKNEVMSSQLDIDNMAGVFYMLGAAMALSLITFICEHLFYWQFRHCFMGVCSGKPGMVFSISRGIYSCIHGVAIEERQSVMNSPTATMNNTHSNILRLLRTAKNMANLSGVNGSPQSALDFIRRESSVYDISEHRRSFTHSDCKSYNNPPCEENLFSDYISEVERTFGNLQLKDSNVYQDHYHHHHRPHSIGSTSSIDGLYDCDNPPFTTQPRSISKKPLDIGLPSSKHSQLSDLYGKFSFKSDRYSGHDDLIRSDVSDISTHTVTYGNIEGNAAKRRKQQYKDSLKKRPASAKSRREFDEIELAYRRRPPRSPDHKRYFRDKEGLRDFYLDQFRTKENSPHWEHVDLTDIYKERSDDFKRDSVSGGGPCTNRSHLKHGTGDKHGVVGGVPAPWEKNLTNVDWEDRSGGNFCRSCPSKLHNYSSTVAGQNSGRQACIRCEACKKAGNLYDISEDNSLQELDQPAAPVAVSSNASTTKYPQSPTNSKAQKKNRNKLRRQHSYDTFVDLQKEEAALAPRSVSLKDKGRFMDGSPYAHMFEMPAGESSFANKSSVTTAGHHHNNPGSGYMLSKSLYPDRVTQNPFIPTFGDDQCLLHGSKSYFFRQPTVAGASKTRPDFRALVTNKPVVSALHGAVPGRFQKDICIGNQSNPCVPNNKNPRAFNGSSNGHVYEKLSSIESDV

[3] = Total clearance in Sprague-Dawley rat at 0.5 mg/kg, iv dosed via cassette dosing; assay type: ADME, organism-based; details: in vivo
[4] = Oral bioavailability in Sprague-Dawley rat at 1 mg/kg dosed via cassette dosing; assay type: ADME, organism-based; details: in vivo
[5] = […] coefficient, ratio of total drug level in brain to plasma in Sprague-Dawley rat at 0.5 mg/kg, iv dosed via cassette dosing measured after 0.5 hrs; assay type: ADME, organism-based; details: brain and plasma
Rattus norvegicus = test: Analgesic activity in rat model of partial sciatic nerve ligation model assessed as increase in pain threshold at 2.5 to 10 mg/kg, po measured after 3 hrs by Von Frey filament test; assay type: functional; details: read-out: MED
hERG (KCNH2) = hERG (KCNH2) (Homo sapiens, UniProt Q12809); test: Inhibition of human ERG expressed in HEK293 cells at 1 uM; assay type: cell-based; details: HEK293 cells expressing human ERG
hERG (KCNH2), sequence (Q12809 whole entry): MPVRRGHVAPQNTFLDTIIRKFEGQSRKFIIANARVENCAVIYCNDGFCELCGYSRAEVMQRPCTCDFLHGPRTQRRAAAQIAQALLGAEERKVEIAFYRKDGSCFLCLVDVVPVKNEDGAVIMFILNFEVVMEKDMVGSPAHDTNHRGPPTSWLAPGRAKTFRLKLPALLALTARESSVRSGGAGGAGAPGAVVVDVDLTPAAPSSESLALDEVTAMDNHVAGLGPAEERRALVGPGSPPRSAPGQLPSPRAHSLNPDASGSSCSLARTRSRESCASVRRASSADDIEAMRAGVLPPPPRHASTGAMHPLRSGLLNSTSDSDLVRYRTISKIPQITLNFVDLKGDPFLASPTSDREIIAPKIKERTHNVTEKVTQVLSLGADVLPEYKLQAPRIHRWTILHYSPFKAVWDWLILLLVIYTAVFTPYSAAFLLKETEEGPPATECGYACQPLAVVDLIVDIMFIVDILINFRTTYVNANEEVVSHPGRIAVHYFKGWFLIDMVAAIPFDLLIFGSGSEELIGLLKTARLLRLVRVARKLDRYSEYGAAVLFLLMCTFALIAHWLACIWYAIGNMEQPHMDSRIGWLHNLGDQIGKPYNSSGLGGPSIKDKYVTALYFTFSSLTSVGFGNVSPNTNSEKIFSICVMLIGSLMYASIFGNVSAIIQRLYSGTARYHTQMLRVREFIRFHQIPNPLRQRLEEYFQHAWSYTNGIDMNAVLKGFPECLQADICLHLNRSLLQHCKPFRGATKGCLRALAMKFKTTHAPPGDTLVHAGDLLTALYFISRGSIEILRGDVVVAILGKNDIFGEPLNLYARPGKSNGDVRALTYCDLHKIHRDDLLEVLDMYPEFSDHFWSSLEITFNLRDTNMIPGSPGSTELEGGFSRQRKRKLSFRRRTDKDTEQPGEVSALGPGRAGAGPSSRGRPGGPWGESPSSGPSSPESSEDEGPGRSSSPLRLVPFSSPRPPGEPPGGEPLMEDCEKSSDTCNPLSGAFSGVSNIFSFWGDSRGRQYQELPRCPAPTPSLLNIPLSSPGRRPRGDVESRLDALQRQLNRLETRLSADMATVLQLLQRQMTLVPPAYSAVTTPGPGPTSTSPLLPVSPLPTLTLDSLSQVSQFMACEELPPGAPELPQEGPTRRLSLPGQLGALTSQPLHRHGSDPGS

Glutamate receptor ionotropic, NMDA 2B (Rattus norvegicus, UniProt Q00960), sequence (Q00960 whole entry): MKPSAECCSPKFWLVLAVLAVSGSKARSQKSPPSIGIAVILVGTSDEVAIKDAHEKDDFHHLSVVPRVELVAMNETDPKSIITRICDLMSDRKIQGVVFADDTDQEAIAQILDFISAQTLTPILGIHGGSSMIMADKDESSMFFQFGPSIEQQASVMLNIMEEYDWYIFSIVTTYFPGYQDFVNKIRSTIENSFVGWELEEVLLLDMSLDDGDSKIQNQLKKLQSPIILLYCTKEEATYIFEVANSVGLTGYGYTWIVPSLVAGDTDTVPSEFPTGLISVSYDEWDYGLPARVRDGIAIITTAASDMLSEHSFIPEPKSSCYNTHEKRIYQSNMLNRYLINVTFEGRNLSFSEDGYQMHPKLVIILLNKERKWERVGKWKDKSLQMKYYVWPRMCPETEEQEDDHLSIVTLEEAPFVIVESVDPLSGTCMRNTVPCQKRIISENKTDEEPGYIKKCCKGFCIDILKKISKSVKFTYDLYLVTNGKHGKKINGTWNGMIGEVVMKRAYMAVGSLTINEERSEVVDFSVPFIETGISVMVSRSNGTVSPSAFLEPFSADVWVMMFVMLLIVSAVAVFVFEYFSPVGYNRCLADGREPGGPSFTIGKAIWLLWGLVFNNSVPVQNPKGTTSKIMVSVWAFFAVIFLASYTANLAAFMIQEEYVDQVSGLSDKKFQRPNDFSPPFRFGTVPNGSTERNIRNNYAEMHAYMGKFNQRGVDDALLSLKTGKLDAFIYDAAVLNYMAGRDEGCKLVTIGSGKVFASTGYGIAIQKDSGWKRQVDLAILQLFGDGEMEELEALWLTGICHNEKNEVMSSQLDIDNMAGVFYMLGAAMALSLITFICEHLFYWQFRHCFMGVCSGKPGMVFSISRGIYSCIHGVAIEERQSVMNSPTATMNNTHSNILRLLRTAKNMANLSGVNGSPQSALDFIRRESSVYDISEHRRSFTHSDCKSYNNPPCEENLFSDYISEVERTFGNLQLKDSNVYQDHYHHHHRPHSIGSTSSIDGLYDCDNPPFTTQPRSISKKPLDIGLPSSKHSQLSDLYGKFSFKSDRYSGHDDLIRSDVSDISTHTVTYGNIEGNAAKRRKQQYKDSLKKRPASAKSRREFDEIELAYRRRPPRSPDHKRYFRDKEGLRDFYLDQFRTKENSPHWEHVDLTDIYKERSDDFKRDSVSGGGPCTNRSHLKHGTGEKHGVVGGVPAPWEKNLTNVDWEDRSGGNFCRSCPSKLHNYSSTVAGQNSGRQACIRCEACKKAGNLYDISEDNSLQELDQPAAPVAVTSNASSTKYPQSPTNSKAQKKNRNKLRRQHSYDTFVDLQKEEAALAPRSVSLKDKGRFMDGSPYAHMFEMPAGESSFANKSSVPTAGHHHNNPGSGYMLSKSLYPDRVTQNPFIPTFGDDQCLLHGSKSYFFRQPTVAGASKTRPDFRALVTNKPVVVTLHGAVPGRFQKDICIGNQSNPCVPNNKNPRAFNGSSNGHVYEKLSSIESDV

IC50 [1] [nM] | IC50 [2] [nM] | clearance [3] [mL/min/kg] | bioavailability [4] [%] | Kp at 0.5 h [5] | SMILES | minimal effective dose (Rattus norvegicus) [mg/kg] | inhibition at 1 µM (hERG (KCNH2)) [%]
63.1 | 63.1 | 19.3 | 18.4 | 0.37 | O=C(c1cc(-c2ccc(=O)[nH]c2)on1)N1CCC(Cc2ccccc2)CC1 | – | –
251 | 200 | – | – | – | COc1ccc(N2CCN(C(=O)C(=O)Nc3ccc4[nH]c(=O)oc4c3)CC2)cc1 | – | –
63.1 | 6.31 | 15.6 | 52.6 | 1.85 | C[C@@H]1CN(C(=O)C(=O)Nc2ccc3[nH]c(=O)oc3c2)CCN1c1ccc(Cl)cc1 | 10 | 25
631 | 100 | – | – | – | C[C@H]1CN(C(=O)C(=O)Nc2ccc3[nH]c(=O)oc3c2)CCN1c1ccc(Cl)cc1 | – | –
501 | 63.1 | 6.8 | 7.4 | 0.41 | O=C(Nc1ccc2[nH]c(=O)oc2c1)C(=O)N1CCN(Cc2ccc(Cl)cc2)CC1 | – | –
63.1 | 39.8 | 29.2 | 0.6 | 3.27 | O=C(c1cc(-c2cc[nH]n2)on1)N1CCC(Cc2ccc(Cl)cc2)CC1 | – | –
15.8 | – | 7.2 | 17.8 | 0.53 | O=C(Nc1ccc2[nH]c(=O)oc2c1)C(=O)N1CCN(c2ccc(Cl)cc2)CC1 | – | –
> 1000 | – | – | – | – | O=C1Cc2cc(NC(=O)C(=O)N3CCN(c4ccc(Cl)cc4)CC3)ccc2N1 | – | –
100 | 12.6 | 4 | 67.5 | 2.66 | O[C@]1(Cc2cc(-c3cn[nH]c3)on2)CC[C@@H](Cc2ccc(C(F)(F)F)cc2)CC1 | – | –
> 1000 | – | – | – | – | O=C(Nc1ccc2[nH]c(=O)oc2c1)C(=O)N1CCN(c2ccccc2)CC1 | – | –
25.1 | 6.31 | 15.1 | 24.8 | 2.99 | O=C(Nc1ccc2[nH]c(=O)oc2c1)C(=O)N1CCN(c2ccc(C(F)(F)F)cc2)CC1 | – | –
25.1 | 10 | 5.4 | 9.3 | 0.38 | O=C(c1cc(-c2ccc(=O)[nH]c2)on1)N1CCC(Cc2ccc(Cl)cc2)CC1 | – | –
126 | 126 | 11.1 | 39.3 | – | O=C(Nc1ccc2[nH]c(=O)oc2c1)C(=O)N1CCN(c2ccc(F)cc2)CC1 | – | –
158 | 100 | – | – | – | O=C(Nc1ccc2[nH]c(=O)oc2c1)C(=O)N1CCN(c2cc(F)cc(F)c2)CC1 | – | –
20 | 10 | 4 | 13 | 0.82 | O=C(Nc1ccc2[nH]c(=O)oc2c1)C(=O)N1CCN(c2ccc(F)c(F)c2)CC1 | – | –
31.6 | 10 | 18.3 | 24.6 | 1.24 | O=C(Nc1ccc2[nH]c(=O)oc2c1)C(=O)N1CCN(c2ccc(F)c(Cl)c2)CC1 | – | –
79.4 | 50.1 | 71.6 | 0.2 | 3.89 | O=C(c1cc(-c2cc[nH]n2)on1)N1CCC(Cc2ccccc2)CC1 | – | –
63.1 | 10 | 15.9 | 25.3 | 1.89 | C[C@@H]1CN(C(=O)C(=O)Nc2ccc3[nH]c(=O)oc3c2)CCN1c1ccc(F)c(F)c1 | – | –
50.1 | 39.8 | 19.7 | 18.4 | 0.5 | O=C(c1cc(-c2ccc(=O)[nH]c2)on1)N1CCC(Cc2ccc(F)cc2)CC1 | – | –
31.6 | 6.31 | 5.4 | 130 | 0.95 | C[C@@H]1CN(c2ccc(Cl)cc2)CCN1C(=O)C(=O)Nc1ccc2[nH]c(=O)oc2c1 | 10 | 36
50.1 | 3.16 | 6 | 32 | 1.19 | C[C@@H]1CN(C(=O)C(=O)Nc2ccc3[nH]c(=O)oc3c2)CCN1c1ccc(Cl)c(F)c1 | 2.5 | 10
79.4 | 63.1 | – | – | – | O=C(c1cc(-c2cc[nH]n2)on1)N1CCC(Cc2ccc(F)cc2)CC1 | – | –
50.1 | 6.31 | 5.6 | 118 | 0.67 | C[C@@H]1CN(c2ccc(F)c(F)c2)CCN1C(=O)C(=O)Nc1ccc2[nH]c(=O)oc2c1 | – | –
12.6 | – | 5.6 | 28.2 | 0.79 | O=C(Nc1ccc2[nH]c(=O)oc2c1)C(=O)N1CCN(c2ccc(Cl)c(F)c2)CC1 | – | –
15.8 | 15.8 | 101 | 0.6 | 3.17 | COc1ccc(N2CCN(C(=O)C(=O)Nc3ccc4[nH]c(=O)oc4c3)CC2)cc1F | – | –
15.8 | 1 | 5.6 | 8.7 | 0.65 | O=C(Nc1ccc2[nH]c(=O)oc2c1)C(=O)N1CCN(c2ccc(C(F)(F)F)c(F)c2)CC1 | – | –
> 1000 | – | – | – | – | C[C@H]1CN(c2ccc(Cl)cc2)CCN1C(=O)C(=O)Nc1ccc2[nH]c(=O)oc2c1 | – | –
> 1000 | – | – | – | – | O=C1CCc2cc(NC(=O)C(=O)N3CCN(c4ccc(Cl)cc4)CC3)ccc2N1 | – | –
12.6 | 2 | 1.37 | 30.4 | 0.99 | C[C@@H]1CN(c2ccc(Cl)c(F)c2)CCN1C(=O)C(=O)Nc1ccc2[nH]c(=O)oc2c1 | 5 | 29

SMILES | IC50 [1] [nM] | IC50 [2] [nM] | clearance [3] [mL/min/kg] | bioavailability [4] [%] | Kp at 0.5 h [5] | minimal effective dose (Rattus norvegicus) [mg/kg] | inhibition at 1 µM (hERG (KCNH2)) [%]
O=C(c1cc(-c2ccc(=O)[nH]c2)on1)N1CCN(Cc2ccc(Cl)cc2)CC1 | > 1000 | – | – | – | – | – | –
O=C(c1cc(-c2ccc(=O)[nH]c2)on1)N1CCN(c2ccc(Cl)cc2)CC1 | > 1000 | – | – | – | – | – | –
